Data: paper PMC12881670, “Investigation into ligand selectivity and bias at the formyl peptide receptor family” (The Journal of Pharmacology and Experimental Therapeutics, 2025)
Where a SMILES comes first, the peptide text is derived from it. The star is where a group is joined. For = O=C*

What was measured:
Hs_FPR1 = biological target: T1, Hs_FPR1 (Homo sapiens, UniProt P21462); test: Internalization of FLAG-tagged receptors by flow cytometry; assay type: cell-based; parameters: Emax: dose or concentration left out as unconfirmed; conditions: Hs_FPR1, 30 min, relative to 1 μM WKYMVm
T1 construct: expressed in transfected cells
T1 sequence (P21462 1-350): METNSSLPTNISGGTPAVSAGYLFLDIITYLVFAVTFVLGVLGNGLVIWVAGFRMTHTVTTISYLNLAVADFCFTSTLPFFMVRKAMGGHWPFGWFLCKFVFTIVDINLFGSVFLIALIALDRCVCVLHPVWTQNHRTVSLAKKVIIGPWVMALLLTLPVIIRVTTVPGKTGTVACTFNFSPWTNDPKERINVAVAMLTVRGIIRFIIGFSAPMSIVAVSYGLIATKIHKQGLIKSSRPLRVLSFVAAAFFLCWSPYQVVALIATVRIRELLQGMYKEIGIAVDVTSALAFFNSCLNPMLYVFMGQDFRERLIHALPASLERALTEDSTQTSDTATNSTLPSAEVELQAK
Procedure: (§1) Internalization of FPRs was measured by flow cytometry.[30] Briefly, cells were incubated with Alexa Fluor 657 conjugated M1 antiflag antibody (Sigma-Aldrich Cat# F3040, RRID:AB_439712) for 30 minutes at 37 °C to label surface receptors. Cells were then incubated with the indicated concentration of ligand before washing in PBS/0.04% EDTA to remove any remaining surface antibody. Remaining fluorescence was then measured using flow cytometry on either a BD FACScalibur or Attune, recording 5000 gated events. […] As a control, some samples were left untreated, and “strip only” was measured as a readout of constitutive endocytosis, and this value was subtracted from the data.
(§2) All data were analyzed using GraphPad Prism using the nonlinear regression log(agonist) versus response (3 parameters) function for all assays, except binding, which was analyzed using the One site-FitlogIC50 function. Bias calculations were carried out following IUPHAR guidelines as described,[27]^,[37] and data were presented as the Δ Activity ratio (Log[EmaxB/EC50B])-(Log[EmaxA/EC50A]).

Hs_FPR2 [1] = biological target: T2, Hs_FPR2 (Homo sapiens, UniProt P25090); test: as above; assay type: cell-based; parameters: Emax: dose or concentration left out as unconfirmed
T2 construct: expressed in transfected cells
T2 sequence (P25090 1-351): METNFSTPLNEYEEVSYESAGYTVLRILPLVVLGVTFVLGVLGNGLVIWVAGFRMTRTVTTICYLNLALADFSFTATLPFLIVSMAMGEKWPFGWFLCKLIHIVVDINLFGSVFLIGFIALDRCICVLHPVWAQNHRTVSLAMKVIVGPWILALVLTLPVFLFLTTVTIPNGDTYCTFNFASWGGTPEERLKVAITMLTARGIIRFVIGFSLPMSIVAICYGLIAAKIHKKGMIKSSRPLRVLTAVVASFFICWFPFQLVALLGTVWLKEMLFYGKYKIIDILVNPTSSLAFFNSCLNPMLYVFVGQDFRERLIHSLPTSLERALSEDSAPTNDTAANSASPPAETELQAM
Procedure: as §1, §2

Mm_Fpr1 [2] = biological target: T3, Mm_Fpr1 (Mus musculus, UniProt P33766); test: BRET receptor-RLuc8 interaction with Venus-mGsi; assay type: cell-based
T3 construct: expressed in transfected cells
T3 sequence (P33766 1-364): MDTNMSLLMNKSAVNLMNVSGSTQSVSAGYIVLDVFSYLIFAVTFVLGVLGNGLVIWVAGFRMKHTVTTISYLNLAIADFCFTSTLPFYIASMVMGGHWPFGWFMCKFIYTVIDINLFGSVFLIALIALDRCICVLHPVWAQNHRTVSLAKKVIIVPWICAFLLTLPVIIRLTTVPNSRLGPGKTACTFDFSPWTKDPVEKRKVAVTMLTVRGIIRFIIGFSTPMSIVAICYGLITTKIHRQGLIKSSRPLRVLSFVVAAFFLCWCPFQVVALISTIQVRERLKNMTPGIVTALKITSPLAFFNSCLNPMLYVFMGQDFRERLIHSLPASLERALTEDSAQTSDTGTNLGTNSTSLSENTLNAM
Procedure: (§3) BRET1 assays to measure FPR interaction with Venus-mGsi and Arrestin 3-yellow fluorescent protein (YFP) were performed as previously described.[31]^,[32] Briefly, all FPRs C-terminally fused to Renilla Luciferase (donor, RLuc8) were transiently transfected along with either Venus-mGsi or YFP-Arrestin 3 (acceptor) at a ratio of 1:4. 24 hours post transfection, cells were replated into white-walled, 96-well plates and cultured for a further 24–48 hours. On the day of experimentation, growth media was aspirated and replaced with 80 μl Hanks Buffered Saline Solution and equilibrated for 30 minutes. Coelenterazine h was added to each well to a final concentration of 5 μM for 5 minutes before the addition of each compound, and the plate was incubated for a further 10 minutes at 37 °C before being read on a ClarioStar Plus, with luminescence measured at 480/20 nm (donor) and 530/20 (acceptor). The BRET ratio (acceptor/donor) was determined, and the background (untreated) subtracted to give the N-BRET value.
as §2

Mm_Fpr2 [3] = biological target: T4, Mm_Fpr2 (Mus musculus, UniProt O88536); test: BRET receptor-RLuc8 interaction with Venus-mGsi; assay type: cell-based
T4 construct: expressed in transfected cells
T4 sequence (O88536 1-351): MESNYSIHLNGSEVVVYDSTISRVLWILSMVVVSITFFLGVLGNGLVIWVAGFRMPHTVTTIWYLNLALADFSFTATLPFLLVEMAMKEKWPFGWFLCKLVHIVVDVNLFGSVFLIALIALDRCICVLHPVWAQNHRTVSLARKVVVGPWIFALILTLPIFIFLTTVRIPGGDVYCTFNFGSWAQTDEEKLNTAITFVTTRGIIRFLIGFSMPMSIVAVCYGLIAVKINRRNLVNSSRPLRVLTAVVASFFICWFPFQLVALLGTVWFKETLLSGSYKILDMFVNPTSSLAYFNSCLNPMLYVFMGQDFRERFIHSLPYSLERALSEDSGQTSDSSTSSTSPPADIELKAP
Procedure: as §3, §2

Hs_FPR2 [4] = biological target: T2, Hs_FPR2; test: BRET receptor-RLuc8 interaction with Venus-mGsi; assay type: cell-based
Procedure: as §3, §2

Mm_Fpr1 [5] = biological target: T3, Mm_Fpr1; test: Internalization of FLAG-tagged receptors by flow cytometry; assay type: cell-based; parameters: Emax: dose or concentration left out as unconfirmed
Procedure: (§4) Internalization of FPRs was measured by flow cytometry.[30] Briefly, cells were incubated with Alexa Fluor 657 conjugated M1 antiflag antibody (Sigma-Aldrich Cat# F3040, RRID:AB_439712) for 30 minutes at 37 °C to label surface receptors. Cells were then incubated with the indicated concentration of ligand before washing in PBS/0.04% EDTA to remove any remaining surface antibody. Remaining fluorescence was then measured using flow cytometry on either a BD FACScalibur or Attune, recording 5000 gated events. […] As a control, some samples were left untreated, and “strip only” was measured as a readout of constitutive endocytosis, and this value was subtracted from the data. Vehicle control (0.1% DMSO) had no effect on internalization of receptors.
as §2

Mm_Fpr2 [6] = biological target: T4, Mm_Fpr2; test: as above; assay type: cell-based; parameters: Emax: dose or concentration left out as unconfirmed
Procedure: as §4, §2

Mm_Fpr2 [7] = biological target: T4, Mm_Fpr2; test: ERK1/2 phosphorylation by Western blotting; assay type: cell-based
Procedure: (§5) ERK phosphorylation was detected by Western blotting as previously described.[30] Briefly, HEK293 cells stably expressing FLAG-tagged FPRs were plated into 12-well culture plates until 90% confluent. On the day of the experiment, culture media was replaced with serum-free Dulbecco’s modified Eagle’s medium and incubated for 2 hours before stimulation with the indicated compounds. After 7 minutes, the media was removed and stimulation terminated by the addition of 100 μl sample buffer (0.5% SDS, Tris (pH 6.8), glycerol, at >90 °C).
as §2

Hs_FPR2 [8] = biological target: T2, Hs_FPR2; test: ERK1/2 phosphorylation by Western blotting; assay type: cell-based
Procedure: as §5, §2

Mm_Fpr2 [9] = biological target: T4, Mm_Fpr2; test: BRET receptor-RLuc8 interaction with Arrestin 3-YFP; assay type: cell-based
Procedure: as §3, §2

Hs_FPR2 [10] = biological target: T2, Hs_FPR2; test: as above; assay type: cell-based
Procedure: as §3, §2

[11] = system: formyl peptide receptor family (Hs_FPR1, Hs_FPR2, Mm_Fpr1, Mm_Fpr2); test: Summary of main findings: receptor subtype selectivity and ligand bias across all readouts; parameters: species or system human and mouse
From the text: To determine ligand bias, a reference ligand is required, that is, “balanced” for the pathways tested.[37] […] We then used measurements of the activity ratio (Log (Emax/EC50)) for each receptor, ligand, and pathway in an attempt to observe any ligand bias (Fig. 6).

## CC[C@H](C)[C@H](NC(=O)[C@H](CC(C)C)NC(=O)[C@H](CCCCN)NC(=O)[C@H](CCSC)NC(=O)[C@H](CC(C)C)NC(=O)[C@@H]1CCCN1C(=O)[C@H](CC(N)=O)NC(=O)[C@@H](NC(=O)[C@H](CCCCN)NC(=O)[C@H](CCCNC(=N)N)NC(=O)[C@H](CCSC)NC(=O)[C@@H]1CCCN1C(=O)[C@@H](NC(=O)[C@H](CCSC)NC=O)[C@@H](C)O)[C@@H](C)CC)C(=O)N[C@@H](CC(N)=O)C(=O)O [MCT-2, Formyl-MTPMRKINPLMKLIN] (For-MTPMRKINPLMKLIN-OH)
Hs_FPR1
  agonist-induced internalization (words): failed to show appreciable internalization
Hs_FPR2 [1]
  Emax: 63.3%
Mm_Fpr1 [2]
  Emax: -8.19%
Mm_Fpr2 [3]
  Emax: 25%
Hs_FPR2 [4]
  Emax: 44.4%
Mm_Fpr1 [5]
  Emax: 7.39%
Mm_Fpr1 [5]; Mm_Fpr1, 30 min, relative to 1 μM WKYMVm
  agonist-induced internalization (words): failed to show appreciable internalization
Mm_Fpr2 [6]
  Emax: 43.9%
Mm_Fpr2 [7]
  Emax: 169%
Hs_FPR2 [8]
  Emax: 93.9%
Mm_Fpr2 [9]
  Emax: 12.1%
Hs_FPR2 [10]
  Emax: 51.8%
[11]; summary grade of ligand bias relative to WKYMVm, key not given
  Bias: No
[11]; summary of main findings, in words
  Notes: Partial agonist
